Species on record: Rattus norvegicus
Test: Open TG-GATES - Regimen: Single
Assay type: toxicity, organism-based, Sprague-Dawley
Design: regimen Single, gender Male, age 6 weeks
Settings: in vivo, po, route gavage; for Eos / Fbg / Hb / Ht / Lym / MCH / MCHC / MCV / Mono / Neu / PT / Plat / RBC / Ret / WBC / APTT / Bas: tissue Blood; for KIDNEY_L / KIDNEY_R / KIDNEY_TOTAL: tissue Kidney; for LIVER: tissue Liver; for A/G / ALP / ALT / AST / BUN / CRE / Ca / Cl / DBIL / GLC / IP / K / LDH / Na / PL / RALB / TBIL / TC / TG / TP / gamma-GTP: tissue Plasma
[1] = 30 mg/kg, 3 h, dose level Middle
[2] = 30 mg/kg, 6 h, dose level Middle
[3] = 30 mg/kg, 9 h, dose level Middle

O=C1CN(/N=C/c2ccc([N+](=O)[O-])o2)C(=O)N1 [NITROFURANTOIN]
Eos (10 mg/kg, 24 h, dose level Low): 1% | Fbg (10 mg/kg, 24 h, dose level Low): 212.8 mg/dL | Hb (10 mg/kg, 24 h, dose level Low): 13.1 g/dL | Ht (10 mg/kg, 24 h, dose level Low): 37.6% | Lym (10 mg/kg, 24 h, dose level Low): 80.2% | MCH (10 mg/kg, 24 h, dose level Low): 21.9 pg | MCHC (10 mg/kg, 24 h, dose level Low): 34.9% | MCV (10 mg/kg, 24 h, dose level Low): 62.7 fL | Mono (10 mg/kg, 24 h, dose level Low): 2.2% | Neu (10 mg/kg, 24 h, dose level Low): 15.4% | PT (10 mg/kg, 24 h, dose level Low): 12.6 s | Plat (10 mg/kg, 24 h, dose level Low): 126.9 x10_4/uL | RBC (10 mg/kg, 24 h, dose level Low): 599.6 x10_4/ul | Ret (10 mg/kg, 24 h, dose level Low): 7% | WBC (10 mg/kg, 24 h, dose level Low): 79.2 x10_2/uL | KIDNEY_L (10 mg/kg, 24 h, dose level Low): 1.1 g | KIDNEY_R (10 mg/kg, 24 h, dose level Low): 1.1 g | KIDNEY_TOTAL (10 mg/kg, 24 h, dose level Low): 2.1 g | LIVER (10 mg/kg, 24 h, dose level Low): 11.3 g | A/G (10 mg/kg, 24 h, dose level Low): 1.6 | ALP (10 mg/kg, 24 h, dose level Low): 999.6 IU/L | ALT (10 mg/kg, 24 h, dose level Low): 38.4 IU/L | AST (10 mg/kg, 24 h, dose level Low): 63.4 IU/L | BUN (10 mg/kg, 24 h, dose level Low): 16.8 mg/dL | CRE (10 mg/kg, 24 h, dose level Low): 0.4 mg/dL | Ca (10 mg/kg, 24 h, dose level Low): 10.9 mg/dL | Cl (10 mg/kg, 24 h, dose level Low): 101.8 meq/L | DBIL (10 mg/kg, 24 h, dose level Low): 0.1 mg/dL | GLC (10 mg/kg, 24 h, dose level Low): 211.6 mg/dL | IP (10 mg/kg, 24 h, dose level Low): 7.1 mg/dL | K (10 mg/kg, 24 h, dose level Low): 4.3 meq/L | LDH (10 mg/kg, 24 h, dose level Low): 168.2 IU/L | Na (10 mg/kg, 24 h, dose level Low): 139.4 meq/L | PL (10 mg/kg, 24 h, dose level Low): 151.6 mg/dL | RALB (10 mg/kg, 24 h, dose level Low): 3.3 g/dL | TBIL (10 mg/kg, 24 h, dose level Low): 0.2 mg/dL | TC (10 mg/kg, 24 h, dose level Low): 78.8 mg/dL | TG (10 mg/kg, 24 h, dose level Low): 105.8 mg/dL | TP (10 mg/kg, 24 h, dose level Low): 5.4 g/dL | gamma-GTP (10 mg/kg, 24 h, dose level Low): 0.8 IU/L | TERMINAL_BW [1]: 218.7 g | APTT [1]: 18.8 s | Bas [1]: 0% | Eos [1]: 1.2% | Fbg [1]: 219.2 mg/dL | Hb [1]: 13.8 g/dL | Ht [1]: 39.3% | Lym [1]: 79% | MCH [1]: 21.6 pg | MCHC [1]: 35.2% | MCV [1]: 61.4 fL | Mono [1]: 2% | Neu [1]: 16.8% | PT [1]: 12.6 s | Plat [1]: 113.7 x10_4/uL | RBC [1]: 642 x10_4/ul | Ret [1]: 7.5% | WBC [1]: 82.7 x10_2/uL | KIDNEY_L [1]: 1 g | KIDNEY_R [1]: 1 g | KIDNEY_TOTAL [1]: 2 g | LIVER [1]: 10.8 g | A/G [1]: 1.5 | ALP [1]: 1203 IU/L | ALT [1]: 37.6 IU/L | AST [1]: 66.6 IU/L | BUN [1]: 12.8 mg/dL | CRE [1]: 0.4 mg/dL | Ca [1]: 10.6 mg/dL | Cl [1]: 101.4 meq/L | DBIL [1]: 0.074 mg/dL | GLC [1]: 194.6 mg/dL | IP [1]: 9 mg/dL | K [1]: 4 meq/L | LDH [1]: 180 IU/L | Na [1]: 140.6 meq/L | PL [1]: 136 mg/dL | RALB [1]: 3.3 g/dL | TBIL [1]: 0.1 mg/dL | TC [1]: 74.6 mg/dL | TG [1]: 62.2 mg/dL | TP [1]: 5.5 g/dL | gamma-GTP [1]: 0.8 IU/L | TERMINAL_BW [2]: 219.6 g | APTT [2]: 19 s | Bas [2]: 0% | Eos [2]: 1% | Fbg [2]: 219 mg/dL | Hb [2]: 13.3 g/dL | Ht [2]: 37.6% | Lym [2]: 75% | MCH [2]: 21.5 pg | MCHC [2]: 35.3% | MCV [2]: 61 fL | Mono [2]: 2.6% | Neu [2]: 20% | PT [2]: 12.7 s | Plat [2]: 115.2 x10_4/uL | RBC [2]: 616.2 x10_4/ul | Ret [2]: 7.6% | WBC [2]: 82.3 x10_2/uL | KIDNEY_L [2]: 1 g | KIDNEY_R [2]: 1 g | KIDNEY_TOTAL [2]: 2 g | LIVER [2]: 9.8 g | A/G [2]: 1.6 | ALP [2]: 861.8 IU/L | ALT [2]: 31 IU/L | AST [2]: 58.8 IU/L | BUN [2]: 11 mg/dL | CRE [2]: 0.4 mg/dL | Ca [2]: 10.6 mg/dL | Cl [2]: 103.2 meq/L | DBIL [2]: 0.072 mg/dL | GLC [2]: 191 mg/dL | IP [2]: 9.2 mg/dL | K [2]: 4.1 meq/L | LDH [2]: 168.6 IU/L | Na [2]: 140.8 meq/L | PL [2]: 132 mg/dL | RALB [2]: 3.3 g/dL | TBIL [2]: 0.1 mg/dL | TC [2]: 73.4 mg/dL | TG [2]: 64 mg/dL | TP [2]: 5.4 g/dL | gamma-GTP [2]: 0.8 IU/L | TERMINAL_BW [3]: 216.9 g | APTT [3]: 18.6 s | Bas [3]: 0% | Eos [3]: 0.8% | Fbg [3]: 213.4 mg/dL | Hb [3]: 13.3 g/dL | Ht [3]: 38% | Lym [3]: 79.6% | MCH [3]: 21.9 pg | MCHC [3]: 35.1% | MCV [3]: 62.3 fL | Mono [3]: 3.2% | Neu [3]: 14.8% | PT [3]: 12.9 s | Plat [3]: 107.6 x10_4/uL | RBC [3]: 609.8 x10_4/ul | Ret [3]: 7.5% | WBC [3]: 96.9 x10_2/uL | KIDNEY_L [3]: 1 g | KIDNEY_R [3]: 1 g | KIDNEY_TOTAL [3]: 2 g | LIVER [3]: 9.5 g
